Assay results taken from ChEMBL document CHEMBL5550140, “Emerging ferroptosis inhibitors as a novel therapeutic strategy for the treatment of neonatal hypoxic-ischemic encephalopathy” (2024).

System: Mus musculus
Assay: Neuroprotective activity against hypoxia-ischemia brain injured mouse model assessed as reduction in infarct volume at 20 mg/kg, ip measured after 72 hrs by immuno-histochemistry based staining analysis relative to control
Type: functional
Parameters: scale not given: the % may be the effect or the level left

Oc1cccnc1NC(c1ccc(Cl)cc1)c1ccc2cccnc2c1O (stereo unspecified)
Activity: 26.3%
